These results are taken from patent publication US8133887B2, “Oxaphenanthrene derivatives” (Merck Patent GmbH, priority 2005, dated 2012).

pIC50, pKi: −log10 of the molar value.

The target of test [1] is human CB1 receptor (Homo sapiens, UniProt P21554). As to the kind of experiment: CB1 (h) receptor ligand binding (competition). An excerpt:
(§1) The specific ligand binding to the receptors is defined as the difference between complete binding and non-specific binding determined in the presence of an excess of unlabelled ligand (see, for example, MUNRO, S., THOMAS, K. L. and ABU-SHAAR, M. (1993), Molecular characterisation of a peripheral receptor for cannabinoids.
(§2) The IC50 values (concentration necessary for half-maximum inhibition of the specific control binding) and Hill coefficients (nH) are obtained by non-linear regression analyses of the competition curves, with the curve matching being carried out in accordance with the Hill equation.
(§3) The inhibition constants (Ki) are calculated in accordance with the Cheng Prusoff equation (Ki=IC50/1+(L/KD)).

Test [2] concerns the target human CB2 receptor (Homo sapiens, UniProt P34972). The test is described as follows: CB2 (h) receptor ligand binding (competition).
Text: as §1, §2, §3

The mark [3] stands for this setting: calculated by Cheng Prusoff equation.
The mark [4] stands for this setting: half-maximum inhibition of specific control binding.
Setting [5] is: non-linear regression of competition curve.

Sequence of human CB1 receptor (P21554 whole entry): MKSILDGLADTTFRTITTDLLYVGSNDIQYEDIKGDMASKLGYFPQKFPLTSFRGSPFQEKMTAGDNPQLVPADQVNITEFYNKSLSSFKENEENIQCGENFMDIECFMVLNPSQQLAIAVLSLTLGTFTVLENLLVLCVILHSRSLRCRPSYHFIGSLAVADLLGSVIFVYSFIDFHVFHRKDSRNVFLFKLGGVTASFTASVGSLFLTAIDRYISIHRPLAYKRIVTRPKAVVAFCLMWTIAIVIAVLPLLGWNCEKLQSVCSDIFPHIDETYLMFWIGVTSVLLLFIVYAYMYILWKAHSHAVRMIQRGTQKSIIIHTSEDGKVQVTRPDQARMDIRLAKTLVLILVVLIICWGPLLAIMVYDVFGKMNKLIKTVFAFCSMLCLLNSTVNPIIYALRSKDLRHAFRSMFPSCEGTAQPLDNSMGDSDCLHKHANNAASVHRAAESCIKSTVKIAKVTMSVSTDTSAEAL
Sequence of human CB2 receptor (P34972 whole entry): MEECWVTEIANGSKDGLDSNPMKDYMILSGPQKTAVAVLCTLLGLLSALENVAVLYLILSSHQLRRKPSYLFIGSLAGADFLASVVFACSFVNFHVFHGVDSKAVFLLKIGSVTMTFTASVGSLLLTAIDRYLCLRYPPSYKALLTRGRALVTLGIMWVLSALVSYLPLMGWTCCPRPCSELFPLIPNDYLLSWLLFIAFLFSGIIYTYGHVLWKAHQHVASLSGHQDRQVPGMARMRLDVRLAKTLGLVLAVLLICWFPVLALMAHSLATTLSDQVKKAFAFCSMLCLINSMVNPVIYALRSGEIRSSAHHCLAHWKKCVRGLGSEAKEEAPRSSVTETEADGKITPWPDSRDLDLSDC

The term pKi denotes the Ki on a negative log10 scale, so that one unit is a factor of ten. By pIC50 is commonly meant the IC50 on a negative log10 scale, so that one unit is a factor of ten. A low value points to a large IC50. As to `CCCCCc1cc(O)c2c(c1)OC(F)(F)C1CCCCC21` (stereo not drawn) [Compound Ia], the pKi in test [1] (setting [3]) is 5.72; in test [2] (setting [3]) it was 6.04. In addition, the pIC50 in test [1] (setting [4]) was 5.66; in test [2] (setting [4]), 5.85. The figures for the “nH (Hill coefficient)” value in test [1] (setting [5]) and in test [2] (setting [5]) were 1.5 and 0.9, respectively.
